The assay concerns BDF1 mice, P388 leukemia ip, median survival T/C. Description: NCI In Vivo Anticancer Drug Screen. Data for tumor model P388 Leukemia (intraperitoneal) in B6D2F1 (BDF1) mice. As to conditions: endpoint: median survival time, higher = longer survival. An outline of the steps: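 In tumour-bearing mice, survival after compound treatment is set against the vehicle group and given as a quotient.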

Where [1] appears, read: dose: 50.0 mg/kg/injection, schedule: Q01DX009 (ip), vehicle: saline.
[2] abbreviates: dose: 100.0 mg/kg/injection, schedule: Q01DX009 (ip), vehicle: saline.
[3] abbreviates: dose: 200.0 mg/kg/injection, schedule: Q01DX009 (ip), vehicle: saline.
[4] abbreviates: dose: 100.0 mg/kg/injection, schedule: Q04DX003 (ip), vehicle: saline with Tween-80.
Setting [5] is: dose: 200.0 mg/kg/injection, schedule: Q04DX003 (ip), vehicle: saline with Tween-80.
Setting [6] is: dose: 400.0 mg/kg/injection, schedule: Q04DX003 (ip), vehicle: saline with Tween-80.
Setting [7] is: dose: 200.0 mg/kg/injection, schedule: Q01DX009 (ip), vehicle: Klucel (hydroxypropylcellulose) (HPC).
[8] abbreviates: dose: 200.0 mg/kg/injection, schedule: Q04DX003 (ip), vehicle: Klucel (hydroxypropylcellulose) (HPC).
The mark [9] stands for this setting: dose: 12.5 mg/kg/injection, schedule: Q01DX009 (ip), vehicle: saline with Tween-80.
The mark [10] stands for this setting: dose: 100.0 mg/kg/injection, schedule: Q01DX009 (ip), vehicle: saline with Tween-80.
Setting [11] is: dose: 200.0 mg/kg/injection, schedule: Q01DX009 (ip), vehicle: saline with Tween-80.
Setting [12] is: dose: 400.0 mg/kg/injection, schedule: Q01DX009 (ip), vehicle: saline with Tween-80.
The mark [13] stands for this setting: dose: 50.0 mg/kg/injection, schedule: Q01DX009 (ip), vehicle: saline with Tween-80.
The mark [14] stands for this setting: dose: 400.0 mg/kg/injection, schedule: Q01DX009 (ip), vehicle: saline.
Setting [15] is: dose: 50.0 mg/kg/injection, schedule: Q04DX003 (ip), vehicle: saline.
The mark [16] stands for this setting: dose: 100.0 mg/kg/injection, schedule: Q04DX003 (ip), vehicle: saline.

“And” between values parts separate entries of the source, which are not always exact repeats. Equal values may be shown once. Toxic doses and inconclusive results are not listed.

For `c1ccc2c(NCCCCCCNc3c4ccccc4nc4ccccc34)c3ccccc3nc2c1`, the T/C (dose: 0.31 mg/kg/injection, schedule: Q01DX009 (ip), vehicle: lactic acid) was 110 % of control; the T/C (dose: 0.62 mg/kg/injection, schedule: Q01DX009 (ip), vehicle: lactic acid) is 123 % of control; the T/C (dose: 1.25 mg/kg/injection, schedule: Q01DX009 (ip), vehicle: lactic acid) was 163 % of control; the T/C (dose: 2.5 mg/kg/injection, schedule: Q01DX009 (ip), vehicle: lactic acid) was 180 % of control; the T/C (dose: 5.0 mg/kg/injection, schedule: Q01DX009 (ip), vehicle: lactic acid) was 178 % of control.

Take `C=CC(=O)NCCC(=O)O`: the T/C was 100 % of control under setting [1], 90 % of control under setting [2] and 94 % of control under setting [3].

`Nc1ccc(Oc2ccc(Cl)cc2)c(Cl)c1`: the T/C is 100 % of control under setting [4], 95 % of control under setting [5] and 104 % of control under setting [6].

Turning to `CCOC(=O)C(COS(=O)(=O)c1ccc(C)cc1)(COS(=O)(=O)c1ccc(C)cc1)C(=O)OCC`, the T/C runs as follows: (dose: 100.0 mg/kg/injection, schedule: Q01DX009 (ip), vehicle: Klucel (hydroxypropylcellulose) (HPC)) 108 % of control; (dose: 100.0 mg/kg/injection, schedule: Q04DX003 (ip), vehicle: Klucel (hydroxypropylcellulose) (HPC)) 100 % of control; under setting [7], 104 % of control; under setting [8], 104 % of control; (dose: 400.0 mg/kg/injection, schedule: Q01DX009 (ip), vehicle: Klucel (hydroxypropylcellulose) (HPC)) 100 % of control; (dose: 400.0 mg/kg/injection, schedule: Q04DX003 (ip), vehicle: Klucel (hydroxypropylcellulose) (HPC)) 100 % of control.

Turning to `COc1c(CO)c2c(c(OC)c1OC)-c1ccc(OC)c(=O)cc1[C@@H](NC(C)=O)CC2`, the T/C reads like this: (dose: 25.0 mg/kg/injection, schedule: Q01DX009 (ip), vehicle: Klucel (hydroxypropylcellulose) (HPC)) 153 % of control; (dose: 50.0 mg/kg/injection, schedule: Q01DX009 (ip), vehicle: Klucel (hydroxypropylcellulose) (HPC)) 168 % of control.

`C=CC[n+]1ccccc1C(c1ccccc1)c1ccccc1`: the T/C runs as follows: (dose: 6.25 mg/kg/injection, schedule: Q01DX009 (ip), vehicle: saline with Tween-80) 116 % of control; under setting [9], 120 % of control; (dose: 12.5 mg/kg/injection, schedule: Q04DX003 (ip), vehicle: saline with Tween-80) 91 % of control.

For `CC(=O)Nc1ccc(/C=C/C(=O)c2ccc(Cl)cc2)cc1`, the T/C under setting [10] was 100 % of control; the T/C under setting [4] is 104 % of control; the T/C under setting [11] was 100 % of control; the T/C under setting [5] is 100 % of control; the T/C under setting [12] is 100 % of control; the T/C under setting [6] is 90 % of control.

Regarding `O=C1N(Br)C(=O)C(c2ccc(Cl)cc2)(c2ccc(Cl)cc2)N1Br`, the T/C is 113 % of control under setting [9]; 90 % of control (dose: 45.0 mg/kg/injection, schedule: Q04DX003 (ip), vehicle: Klucel (hydroxypropylcellulose) (HPC)); 172 % of control under setting [13]; 95 % of control (dose: 65.0 mg/kg/injection, schedule: Q04DX003 (ip), vehicle: Klucel (hydroxypropylcellulose) (HPC)); 150 % of control (dose: 100.0 mg/kg/injection, schedule: Q04DX003 (ip), vehicle: alcohol); 115 % of control (dose: 100.0 mg/kg/injection, schedule: Q04DX003 (ip), vehicle: saline sonified). Besides, the T/C (dose: 130.0 mg/kg/injection, schedule: Q01DX009 (ip), vehicle: Klucel (hydroxypropylcellulose) (HPC)) was 156 % of control; the T/C (dose: 132.0 mg/kg/injection, schedule: Q01DX009 (ip), vehicle: Klucel (hydroxypropylcellulose) (HPC)) was 95 % of control; the T/C (dose: 132.0 mg/kg/injection, schedule: Q04DX003 (ip), vehicle: Klucel (hydroxypropylcellulose) (HPC)) was 177 % of control; the T/C (dose: 132.0 mg/kg/injection, schedule: Q04DX003 (ip), vehicle: saline) is 165 % of control; the T/C (dose: 200.0 mg/kg/injection, schedule: Q01DX003 (ip), vehicle: Klucel (hydroxypropylcellulose) (HPC)) was 154 % of control; the T/C under setting [7] is 175 % of control. The T/C under setting [8] was 154 % of control; the T/C (dose: 200.0 mg/kg/injection, schedule: Q04DX003 (ip), vehicle: alcohol) is 185 % of control; the T/C (dose: 200.0 mg/kg/injection, schedule: Q04DX003 (ip), vehicle: saline sonified) is 160 % of control; the T/C (dose: 300.0 mg/kg/injection, schedule: Q04DX003 (ip), vehicle: saline) was 150 % of control; the T/C (dose: 400.0 mg/kg/injection, schedule: Q04DX003 (ip), vehicle: alcohol) is 150 % of control.

Regarding `NC(=O)CC(N)c1nn[nH]n1` (stereo not given), the T/C by setting is: under setting [2], 95 % of control; under setting [3], 100 % of control; under setting [14], 90 % of control.

On to `FC(F)(F)c1cccc(C(c2ccccc2)(c2ccccc2)n2cncn2)c1`, for which the T/C was 114 % of control under setting [13], 109 % of control under setting [10] and 100 % of control under setting [11].

For `S=c1cc(-c2cccs2)ss1`, the T/C under setting [1] is 109 % of control; the T/C under setting [15] is 108 % of control; the T/C under setting [2] is 96 % of control; the T/C under setting [16] was 115 % of control; the T/C under setting [3] is 100 % of control; the T/C (dose: 200.0 mg/kg/injection, schedule: Q04DX003 (ip), vehicle: saline) is 105 % of control. Besides, the T/C reads like this: under setting [14], 91 % of control; (dose: 400.0 mg/kg/injection, schedule: Q04DX003 (ip), vehicle: saline) 107 % of control.

Take `CC1=Nc2ccccc2C(=O)N(C)N1`: the T/C was 100 % of control under setting [13], 104 % of control under setting [10] and 97 % of control under setting [11].

On to `OCC(O)CCBr` (stereo not given), for which the T/C (dose: 264.0 mg/kg/injection, schedule: Q01DX009 (ip), vehicle: saline with Tween-80) is 150 % of control; the T/C under setting [12] was 170 % of control; the T/C (dose: 600.0 mg/kg/injection, schedule: Q01DX009 (ip), vehicle: saline with Tween-80) is 208 % of control.

Turning to `O=C1CCCC1C(=O)Nc1cccc2cccnc12` (stereo not given), the T/C by setting is: under setting [4], 117 % of control; under setting [5], 95 % of control; under setting [6], 100 % of control.

Turning to `CC1(C(N)=O)CCCC2(C)c3ccccc3CCC12` (stereo not given), the T/C under setting [4] was 100 % of control, the T/C under setting [5] is 104 % of control and the T/C under setting [6] was 100 % of control.

On to `CCCCOC1CC2c3ccccc3C1c1cccc[n+]12` (stereo not given), for which the T/C was 95 % of control (dose: 6.25 mg/kg/injection, schedule: Q01DX009 (ip), vehicle: saline); 109 % of control (dose: 12.5 mg/kg/injection, schedule: Q01DX009 (ip), vehicle: saline); 100 % of control (dose: 18.75 mg/kg/injection, schedule: Q04DX003 (ip), vehicle: saline); 122 % of control (dose: 25.0 mg/kg/injection, schedule: Q01DX009 (ip), vehicle: saline); 95 % of control (dose: 37.5 mg/kg/injection, schedule: Q04DX003 (ip), vehicle: saline).

Regarding `CC(=O)CC(C)=O.CC(=O)CC(C)=O.CC(=O)CC(C)=O.[Ga]`, the T/C is 100 % of control (dose: 25.0 mg/kg/injection, schedule: Q04DX003 (ip), vehicle: saline); 95 % of control under setting [15]; 86 % of control under setting [16].

With `CCC12C=CCN3CCC4(c5ccc(OC)cc5N(C)C4C(O)(C(=O)OC)C1OC(C)=O)C32` (stereo not given) (tested in a mixture with another compound), the T/C (dose: 0.06 mg/kg/injection, schedule: Q01DX009 (ip), vehicle: water) was 86 % of control and 95 % of control; the T/C (dose: 0.12 mg/kg/injection, schedule: Q01DX009 (ip), vehicle: water) is 90 % of control; the T/C (dose: 0.25 mg/kg/injection, schedule: Q01DX009 (ip), vehicle: water) was 86 % of control and 104 % of control; the T/C (dose: 0.5 mg/kg/injection, schedule: Q01DX009 (ip), vehicle: water) is 90 % of control; the T/C (dose: 1.0 mg/kg/injection, schedule: Q01DX009 (ip), vehicle: water) is 86 % of control and 90 % of control; the T/C (dose: 2.0 mg/kg/injection, schedule: Q01DX009 (ip), vehicle: water) is 100 % of control and 90 % of control.
